Experiments:
FGFR1 kinase = FGFR1 kinase (Homo sapiens (Human), UniProt P11362); experiment: Enzymologic experiment of FGFR1 (TR-FRET); format: biochemical; details: FGFR1 kinase activity
In short: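 FGFR1 at 0.1˜5 nM final with substrate peptide 5˜50 nM and ATP 10˜200 μM final, 0.5˜3 h at room temperature. Stopped with EDTA plus labeled antibody for 1 h; TR-FRET signal read at 665 nm, IC50 fitted from inhibition rates.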

HuH-7 cells = experiment: Inhibition of HuH-7 cell proliferation (CellTiter-Glo); format: cell-based; details: Homo sapiens; HuH-7 cell proliferation, 72 hours, CellTiter-Glo; read-out: HuH-7 IC50
In short: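 HuH-7 cells plated and left 16–24 h, then exposed to serially diluted compound for 72 h at 37 °C, 5% CO2. Viability read by CellTiter-Glo luminescence. IC50 obtained by curve fitting of inhibition rates.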

FGFR4 kinase = FGFR4 kinase (Homo sapiens (Human), UniProt P22455); experiment: Enzymologic experiment of FGFR4 (TR-FRET); format: biochemical; details: FGFR4 kinase activity
Sequence of FGFR4 kinase (P22455 22-802): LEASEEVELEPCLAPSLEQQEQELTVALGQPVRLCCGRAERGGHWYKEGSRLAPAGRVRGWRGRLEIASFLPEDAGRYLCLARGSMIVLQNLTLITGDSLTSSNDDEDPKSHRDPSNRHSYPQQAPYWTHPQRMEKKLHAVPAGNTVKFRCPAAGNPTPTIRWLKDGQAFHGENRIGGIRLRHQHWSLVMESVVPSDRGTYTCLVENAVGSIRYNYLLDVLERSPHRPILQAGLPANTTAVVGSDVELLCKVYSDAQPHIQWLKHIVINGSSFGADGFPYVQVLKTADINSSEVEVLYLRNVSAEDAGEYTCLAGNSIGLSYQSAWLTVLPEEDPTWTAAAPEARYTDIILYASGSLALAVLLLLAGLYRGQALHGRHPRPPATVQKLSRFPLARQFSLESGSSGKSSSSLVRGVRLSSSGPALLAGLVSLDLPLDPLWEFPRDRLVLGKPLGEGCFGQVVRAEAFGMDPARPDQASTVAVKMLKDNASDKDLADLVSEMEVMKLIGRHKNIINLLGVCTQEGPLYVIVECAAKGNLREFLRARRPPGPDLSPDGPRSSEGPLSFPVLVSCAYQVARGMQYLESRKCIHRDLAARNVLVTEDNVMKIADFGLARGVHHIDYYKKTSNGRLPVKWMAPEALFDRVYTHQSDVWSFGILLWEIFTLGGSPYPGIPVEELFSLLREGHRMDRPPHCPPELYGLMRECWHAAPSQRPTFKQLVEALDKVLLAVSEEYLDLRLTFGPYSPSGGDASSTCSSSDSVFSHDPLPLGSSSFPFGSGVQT
Procedure: In this experiment, the inhibitory effect of the compounds on FGFR4 kinase activity was tested by a fluorescence resonance energy transfer (TR-FRET) method, and the half maximal inhibitory concentration (IC50) of the compounds on the FGFR4 kinase activity was determined.
2) 1˜5 μL of diluted solution in gradient of the compound was added.
3) 1˜5 μL of a substrate mixture containing substrate polypeptide with a final concentration of 5˜50 nM and ATP with a final concentration of 10˜200 μM was added.
4) The mixture was incubated for 0.5˜3 hours at room temperature.
5) 10 μL of EDTA and a test solution comprising labeled antibody were added, and the plate was incubated for 1 hour at room temperature.
7) The inhibition rates were calculated according to the fluorescence signal values.

[1] = Pharmacokinetic (PK) analysis in rats; format: in vivo, Sprague Dawley (SD) rats; details: SD rats, single intragastric administration, 5 mg/kg; for Peak Time tmax: (sampling in hours); for AUC(0-t) / AUC(0-inf) / half-life / MRT / Cmax: Sprague-Dawley, rat, plasma, po; for AUC(0-t): read-out: Area Under Curve AUC0-t; for AUC(0-inf): read-out: Area Under Curve AUC0-∞; for half-life: read-out: Half-Time t1/2 (converted); for MRT: read-out: Mean Residence Time MRT; for Cmax: read-out: Plasma Concentration Cmax
In short: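 Intravenous blood (0.2 ml) was collected into K2EDTA and centrifuged to obtain plasma. Plasma (40 μL) was protein-precipitated with 160 μL acetonitrile. Compound levels were measured by LC/MS/MS on a C18 column using 0.1% formic acid in water and acetonitrile at 0.8 mL/min.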

Hep 3B cells = experiment: Inhibition of Hep 3B cell proliferation (CellTiter-Glo); format: cell-based; details: Homo sapiens, Hep3B; Hep 3B cell proliferation, 72 hours, CellTiter-Glo; read-out: Hep 3B IC50
SK-HEP-1 cells = experiment: Inhibition of SK-HEP-1 cell proliferation (CellTiter-Glo); format: cell-based; details: Homo sapiens, SK-HEP1; SK-HEP-1 cell proliferation, 72 hours, CellTiter-Glo; read-out: SK-HEP-1 IC50
In short: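 Cells seeded and allowed to attach 16–24 h, then exposed to serially diluted compound for 72 h at 37 °C, 5% CO2. Viability read by CellTiter-Glo luminescence; IC50 fitted from inhibition rates across concentrations.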

Hep 3B cell line tumor = experiment: Pharmacodynamics test in vivo, Hep 3B tumor-bearing nude mice; details: Mus musculus, Hep3B, 216 h, oral 30 mg/kg, 2 times/day, 9 days of administration, read-out: Tumor inhibition rate
Procedure: a, A Hep 3B cell line was taken from the cell bank, and the cells were resuscitated with the MEM culture medium (MEM+10% FBS+1% Glu+1% SP). The cells were placed in the cell culture bottle after resuscitation (cell type, date, and the name of the culturing person were marked on the bottle wall) and were incubated in a CO2 Incubator (the incubator temperature was 37° C., and the CO2 concentration was 5%).
b, The cells were passaged after 80-90% of the bottom of the culture bottle was covered by the cells. After passage, the cells were further incubated in the CO2 incubator. The process was repeated until the number of cells met the pharmacodynamic requirements in vivo.
c, The cultured cells were collected and counted by automatic cell counter. According to the counting results, the cells were resuspended with PBS to prepare a cell suspension (density: 7×10^7/mL), which was placed in the ice box for use.
a, Nude mouse was marked with a disposable universal ear tag for mouse and rat before inoculation, and the skin of the inoculated site was disinfected with 75% medical alcohol.
b, At the time of inoculation, the cell suspension was mixed well, 0.1˜1 mL of cell suspension was taken with a 1 mL syringe, after removing air bubbles, and the syringe was placed on an ice bag for use.
c, The nude mice were inoculated successively (the inoculated site was located on the right shoulder of the right back of the nude mice, and inoculated subcutaneously with 0.1 mL of cell suspension).
a, Tumor was measured on Day 14 to Day 16 after inoculation depending on the tumor growth, and tumor size was calculated.
Tumor volume calculation: tumor volume (mm^3)=length (mm)×width (mm)×width (mm)/2
b, According to the size of the tumor, the mice were grouped by random grouping.
c, According to the results of the grouping, the test drug was administered (administration method: oral administration, administration dose: 30 mg/kg, administration volume: 10 mL/kg, administration frequency: 2 times/day, […], vehicle: 0.5% CMC/1% Tween 80).
d, The tumor was measured and weighed twice a week after the test drug was administrated.
e, Animals were euthanized at the end of the test.

Sequence of FGFR1 kinase (P11362 22-822): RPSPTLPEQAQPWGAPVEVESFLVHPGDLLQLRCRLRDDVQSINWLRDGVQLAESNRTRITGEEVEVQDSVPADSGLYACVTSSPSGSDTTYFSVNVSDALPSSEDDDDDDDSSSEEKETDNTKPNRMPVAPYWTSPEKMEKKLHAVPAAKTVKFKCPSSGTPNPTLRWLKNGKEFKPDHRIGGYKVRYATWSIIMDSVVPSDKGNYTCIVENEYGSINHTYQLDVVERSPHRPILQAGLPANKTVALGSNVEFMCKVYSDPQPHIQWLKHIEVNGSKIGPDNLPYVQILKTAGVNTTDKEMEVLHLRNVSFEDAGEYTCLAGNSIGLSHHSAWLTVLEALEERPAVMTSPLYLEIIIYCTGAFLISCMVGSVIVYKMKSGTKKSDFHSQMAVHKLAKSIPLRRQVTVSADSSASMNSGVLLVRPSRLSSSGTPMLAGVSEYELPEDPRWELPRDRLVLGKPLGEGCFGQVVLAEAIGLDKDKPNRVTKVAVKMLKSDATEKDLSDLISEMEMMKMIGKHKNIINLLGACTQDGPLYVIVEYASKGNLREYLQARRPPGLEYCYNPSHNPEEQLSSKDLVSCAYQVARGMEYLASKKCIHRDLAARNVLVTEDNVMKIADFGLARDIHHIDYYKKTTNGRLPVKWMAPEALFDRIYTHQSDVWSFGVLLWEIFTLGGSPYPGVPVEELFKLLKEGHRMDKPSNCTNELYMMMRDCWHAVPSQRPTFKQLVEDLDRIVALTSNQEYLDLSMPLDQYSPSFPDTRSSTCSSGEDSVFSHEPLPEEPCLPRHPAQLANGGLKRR

IC50 (FGFR1 kinase) [µM] | IC50 (HuH-7 cells) [nM] | IC50 (FGFR4 kinase) [nM] | Peak Time tmax [1] [h] | AUC(0-t) [1] [ng·h/mL] | AUC(0-inf) [1] [ng·h/mL] | half-life [1] [min] | MRT [1] [h] | Cmax [1] [ng/mL] | IC50 (SK-HEP-1 cells) [µM] | SMILES | IC50 (Hep 3B cells) [nM] | inhibition in vivo at 30 mg/kg (Hep 3B cell line tumor) [%]
> 10 | 24.1 | 2.77 | 4 | 5530 | 5690 | 58.8 | 3.86 | 1290 | > 10 | CONc1cc(NC(=O)N2CCCc3cc(CN4CCOCC4=O)c(C=O)nc32)ncc1C#N [Example 54, N-(5-Cyano-4-(methoxyamino)pyridin-2-yl)-7-formyl-6-((3-carbonylmorpholino)methyl)-3,4-dihydro-1,8-naphthyridine-1(2H)-carboxamide] | 17.5 | –
> 10 | 11.7 | 0.97 | 4 | 2480 | 2540 | 60 | 3.6 | 1880 | > 10 | CO[C@H]1COCC1Nc1cc(NC(=O)N2CCCc3cc(CN4CCOCC4=O)c(C=O)nc32)ncc1C#N (stereo partly drawn) [Example 66, N-(5-Cyano-4-(((trans)-4-methoxytetrahydrofuran-3-yl)amino)pyridin-2-yl)-7-formyl-6-((3-carbonylmorpholino)methyl)-3,4-dihydro-1,8-naphthyridin-1(2H)-carboxamide] | 3.3 | –
> 10 | 8.6 | 3.4 | 2 | 4790 | 4940 | 69.6 | 3.74 | 2060 | > 10 | COc1ccccc1Nc1cc(NC(=O)N2CCCc3cc(CN4CCOCC4=O)c(C=O)nc32)ncc1C#N [Example 8, N-(5-Cyano-4-((2-methoxyphenyl)amino)pyridin-2-yl)-7-formyl-6-((3-carbonylmorpholino)methyl)-3,4-dihydro-1,8-naphthyridin-1(2H)-carboxamide] | 0.9 | –
> 10 | 44.4 | 2.93 | 4 | 1530 | 1530 | 153 | 6.24 | 1930 | > 10 | CO[C@H]1COCC1Nc1cc(NC(=O)N2CCCc3cc(CN4C(=O)OCC4C)c(C=O)nc32)ncc1C#N (stereo partly drawn) [Example 46, N-(5-Cyano-4-trans-(((3,4)-4-methoxytetrahydrofuran-3-yl)amino)pyridin-2-yl) -7-formyl-6-(((S)-4-methyl-2-carbonyloxazolidin-3-yl)methyl)-3,4-dihydro-1,8-naphthyridin-1(2H)-carboxamide] | 12.7 | –
> 10 | 24.4 | 4.95 | – | – | – | – | – | – | > 10 | CO[C@H]1COCC1Oc1cc(NC(=O)N2CCCc3cc(CN4C(=O)OC[C@@H]4C)c(C=O)nc32)ncc1C#N (stereo partly drawn) [Example 47, N-(5-Cyano-4-(((3,4)-trans-4-methoxytetrahydrofuran-3-yl)oxy)pyridin-2-yl)-7-formyl-6-(((S)-4-methyl-2-carbonyloxazolidin-3-yl)methyl)-3,4-dihydro-1,8-naphthyridin-1(2H)-carboxamide] | 9.9 | –
> 10 | 14.6 | 1.62 | – | – | – | – | – | – | > 10 | CO[C@@H]1CCN(c2cc(NC(=O)N3CCCc4cc(CN5CCN(C)CC5=O)c(C=O)nc43)ncc2C#N)C1 [Example 64, (R)-N-(5-Cyano-4-(3-methoxypyrrolidin-1-yl)pyridin-2-yl)-7-formyl-6-((4-methyl-2-carbonylpiperazin-1-yl)methyl)-3,4-dihydro-1,8-naphthyridin-1(2H)-carboxamide] | 5.3 | –
– | – | – | – | – | – | – | – | – | – | COC[C@@H](C)Oc1cc(NC(=O)N2CCCc3cc(CN4CCCOCC4=O)c(C=O)nc32)ncc1C#N [Example 28, (R)-N-(5-Cyano-4-((1-methoxypropan-2-yl)oxy)pyridin-2-yl)-7-formyl-6-((3-carbonyl-1,4-oxazepin-4-yl)methyl)-3,4-dihydro-1,8-naphthyridin-1(2H)-carboxamide] | – | 74.3
> 10 | 29.5 | 2.31 | 4 | 3990 | 4070 | 52.8 | 4.17 | 2840 | > 10 | CO[C@H]1COCC1Oc1cc(NC(=O)N2CCCc3cc(CN4CCOCC4=O)c(C=O)nc32)ncc1C#N (stereo partly drawn) [Example 67, N-(5-Cyano-4-(((3,4)-trans-4-methoxytetrahydrofuran-3-yl)oxy)pyridin-2-yl)-7-formyl-6-((3-carbonylmorpholino)methyl)-3,4-dihydro-1,8-naphthyridin-1(2H)-carboxamide] | 16.7 | –
> 10 | 24.3 | 7.63 | – | – | – | – | – | – | > 10 | COc1ncccc1CNc1cc(NC(=O)N2CCCc3cc(CN4CCOCC4=O)c(C=O)nc32)ncc1C#N [Example 57, N-(5-Cyano-4-(((2-methoxypyridin-3-yl)methyl)amino)pyridin-2-yl)-7-formyl-6-((3-carbonylmorpholino)methyl)-3,4-dihydro-1,8-naphthyridin-1(2H)-carboxamide] | 10.2 | –
> 10 | 40.9 | 5.4 | – | – | – | – | – | – | > 10 | CC1OCCC1Sc1cc(NC(=O)N2CCCc3cc(CN4CCOCC4=O)c(C=O)nc32)ncc1C#N (stereo not drawn) [Example 3, N-(5-Cyano-4-((2-methyltetrahydrofuran-3-yl)thio)pyridin-2-yl)-7-formyl-6-((3-carbonylmorpholino)methyl)-3,4-dihydro-1,8-naphthyridin-1(2H)-carboxamide] | 13.1 | –
> 10 | 28.9 | 2.49 | 2 | 4990 | 4030 | 54.6 | 2.7 | 2060 | > 10 | CO[C@H]1CCN(c2cc(NC(=O)N3CCCc4cc(CN5CCN(C)CC5=O)c(C=O)nc43)ncc2C#N)C1 [Example 63, (S)-N-(5-Cyano-4-(3-methoxypyrrolidin-1-yl)pyridin-2-yl)-7-formyl-6-((4-methyl-2-carbonylpiperazin-1-yl)methyl)-3,4-dihydro-1,8-naphthyridin-1(2H)-carboxamide] | 13.8 | –

From patent publication US11667631B2, “FGFR4 inhibitor, preparation method therefor, and applications thereof” (Jiangsu Hansoh Pharmaceutical Group Co., Ltd., priority 2016, dated 2023)
